Data: the kinase profiling compilation of Christmann-Franck et al. (2016)

Legend:
Experiment in all cases: KINOMEscan competition binding
Conditions in all cases: compound 10.0 µM
PIK3CB (human) = PIK3CB (human) (UniProt P42338)
STK25 (human) = STK25 (human) (UniProt O00506)
PDGFRA (human) = PDGFRA (human) (UniProt P16234)
TGFBR1 (human) = TGFBR1 (human) (UniProt P36897)
ANKK1 (human) = ANKK1 (human) (UniProt Q8NFD2)
DCLK2 (human) = DCLK2 (human) (UniProt Q8N568)
LATS1 (human) = LATS1 (human) (UniProt O95835)
AURKB (human) = AURKB (human) (UniProt Q96GD4)
MYO3A (human) = MYO3A (human) (UniProt Q8NEV4)
PAK2 (human) = PAK2 (human) (UniProt Q13177)
CDK14 (human) = CDK14 (human) (UniProt O94921)
[1] = target: JAK2 JH1 catalytic (human) (UniProt O60674)
PTK2B (human) = PTK2B (human) (UniProt Q14289)
CDK7 (human) = CDK7 (human) (UniProt P50613)
NUAK1 (human) = NUAK1 (human) (UniProt O60285)
PLK1 (human) = PLK1 (human) (UniProt P53350)
CDK16 (human) = CDK16 (human) (UniProt Q00536)
EPHA8 (human) = EPHA8 (human) (UniProt P29322)
NEK9 (human) = NEK9 (human) (UniProt Q8TD19)
TLK2 (human) = TLK2 (human) (UniProt Q86UE8)
NEK1 (human) = NEK1 (human) (UniProt Q96PY6)
PRKACA (human) = PRKACA (human) (UniProt P17612)
ULK1 (human) = ULK1 (human) (UniProt O75385)
MAP3K4 (human) = MAP3K4 (human) (UniProt Q9Y6R4)
CSNK1G1 (human) = CSNK1G1 (human) (UniProt Q9HCP0)
ACVR2B (human) = ACVR2B (human) (UniProt Q13705)
ACVR1 (human) = ACVR1 (human) (UniProt Q04771)
ADCK4 (human) = ADCK4 (human) (UniProt Q96D53)
MAP3K11 (human) = MAP3K11 (human) (UniProt Q16584)
DAPK1 (human) = DAPK1 (human) (UniProt P53355)
PHKG2 (human) = PHKG2 (human) (UniProt P15735)
GSK3A (human) = GSK3A (human) (UniProt P49840)
LYN (human) = LYN (human) (UniProt P07948)
RPS6KA6 KD2 (human) = RPS6KA6 KD2 (human) (UniProt Q9UK32)
CAMKK2 (human) = CAMKK2 (human) (UniProt Q96RR4)
MLTK (human) = MLTK (human) (UniProt Q9NYL2)
PHKG1 (human) = PHKG1 (human) (UniProt Q16816)
RIOK3 (human) = RIOK3 (human) (UniProt O14730)
RET (human) = RET (human) (UniProt P07949)
CSNK1D (human) = CSNK1D (human) (UniProt P48730)
Sequence of CSNK1D (human) (P48730 whole entry, looked up): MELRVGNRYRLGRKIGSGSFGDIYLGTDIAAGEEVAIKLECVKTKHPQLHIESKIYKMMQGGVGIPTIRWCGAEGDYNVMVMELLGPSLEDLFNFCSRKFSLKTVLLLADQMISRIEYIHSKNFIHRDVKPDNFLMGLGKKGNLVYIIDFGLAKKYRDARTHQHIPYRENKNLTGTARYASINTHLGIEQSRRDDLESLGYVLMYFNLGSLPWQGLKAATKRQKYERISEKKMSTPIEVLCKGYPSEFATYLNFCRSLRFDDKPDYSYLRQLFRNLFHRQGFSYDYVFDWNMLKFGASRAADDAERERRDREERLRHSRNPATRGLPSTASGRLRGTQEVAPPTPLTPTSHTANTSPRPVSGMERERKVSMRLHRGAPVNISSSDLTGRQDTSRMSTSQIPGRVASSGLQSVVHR

Sequence of DAPK1 (human) (P53355 whole entry, looked up): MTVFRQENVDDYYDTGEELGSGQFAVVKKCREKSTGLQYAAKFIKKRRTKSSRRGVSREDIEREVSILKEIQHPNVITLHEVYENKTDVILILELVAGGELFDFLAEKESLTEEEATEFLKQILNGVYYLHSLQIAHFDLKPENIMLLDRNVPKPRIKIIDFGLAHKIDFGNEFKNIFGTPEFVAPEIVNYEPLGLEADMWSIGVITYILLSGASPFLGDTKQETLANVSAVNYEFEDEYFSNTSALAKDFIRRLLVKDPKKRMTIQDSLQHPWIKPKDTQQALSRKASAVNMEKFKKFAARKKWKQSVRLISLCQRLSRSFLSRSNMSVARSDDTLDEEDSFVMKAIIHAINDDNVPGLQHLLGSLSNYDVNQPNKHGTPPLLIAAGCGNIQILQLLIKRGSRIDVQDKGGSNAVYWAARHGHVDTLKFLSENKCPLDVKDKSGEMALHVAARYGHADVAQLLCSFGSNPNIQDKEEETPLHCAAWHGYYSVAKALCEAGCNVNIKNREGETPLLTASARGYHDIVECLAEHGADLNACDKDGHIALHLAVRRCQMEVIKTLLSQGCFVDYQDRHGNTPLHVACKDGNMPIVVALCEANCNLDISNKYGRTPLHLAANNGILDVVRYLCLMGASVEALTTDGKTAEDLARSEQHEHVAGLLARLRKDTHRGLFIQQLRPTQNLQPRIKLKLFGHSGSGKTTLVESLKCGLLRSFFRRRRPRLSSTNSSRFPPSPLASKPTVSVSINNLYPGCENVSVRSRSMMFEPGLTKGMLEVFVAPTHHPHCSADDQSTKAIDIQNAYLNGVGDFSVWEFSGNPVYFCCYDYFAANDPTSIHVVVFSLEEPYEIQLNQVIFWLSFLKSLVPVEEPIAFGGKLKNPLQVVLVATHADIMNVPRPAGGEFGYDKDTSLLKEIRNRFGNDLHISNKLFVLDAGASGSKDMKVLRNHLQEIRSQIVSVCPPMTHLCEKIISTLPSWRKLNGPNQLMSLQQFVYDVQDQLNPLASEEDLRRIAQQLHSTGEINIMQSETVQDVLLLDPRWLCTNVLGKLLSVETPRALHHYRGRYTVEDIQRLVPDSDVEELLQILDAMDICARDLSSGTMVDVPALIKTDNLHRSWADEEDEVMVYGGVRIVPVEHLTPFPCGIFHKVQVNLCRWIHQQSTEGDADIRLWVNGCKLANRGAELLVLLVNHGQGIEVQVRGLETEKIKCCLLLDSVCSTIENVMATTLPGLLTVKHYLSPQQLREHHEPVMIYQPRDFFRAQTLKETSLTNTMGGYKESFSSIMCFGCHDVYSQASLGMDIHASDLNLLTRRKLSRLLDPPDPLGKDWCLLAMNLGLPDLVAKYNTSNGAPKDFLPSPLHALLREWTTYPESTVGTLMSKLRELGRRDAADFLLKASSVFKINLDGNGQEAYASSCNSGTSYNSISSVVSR
Sequence of PAK2 (human) (Q13177 whole entry, looked up): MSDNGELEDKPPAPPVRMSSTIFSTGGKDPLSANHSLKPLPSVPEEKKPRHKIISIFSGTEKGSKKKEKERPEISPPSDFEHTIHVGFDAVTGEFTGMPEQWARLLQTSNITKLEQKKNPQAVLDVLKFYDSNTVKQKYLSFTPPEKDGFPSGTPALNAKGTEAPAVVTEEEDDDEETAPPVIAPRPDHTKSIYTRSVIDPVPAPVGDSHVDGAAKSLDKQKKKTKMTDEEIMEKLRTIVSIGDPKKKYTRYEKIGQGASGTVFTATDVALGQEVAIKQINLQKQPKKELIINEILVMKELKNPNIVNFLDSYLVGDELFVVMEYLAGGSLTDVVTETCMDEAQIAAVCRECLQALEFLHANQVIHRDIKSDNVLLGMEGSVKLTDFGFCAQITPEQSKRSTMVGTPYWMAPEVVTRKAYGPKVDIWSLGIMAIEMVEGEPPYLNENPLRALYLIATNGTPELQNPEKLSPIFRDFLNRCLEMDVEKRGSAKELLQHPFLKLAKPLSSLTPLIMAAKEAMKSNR
Sequence of RET (human) (P07949 whole entry, looked up): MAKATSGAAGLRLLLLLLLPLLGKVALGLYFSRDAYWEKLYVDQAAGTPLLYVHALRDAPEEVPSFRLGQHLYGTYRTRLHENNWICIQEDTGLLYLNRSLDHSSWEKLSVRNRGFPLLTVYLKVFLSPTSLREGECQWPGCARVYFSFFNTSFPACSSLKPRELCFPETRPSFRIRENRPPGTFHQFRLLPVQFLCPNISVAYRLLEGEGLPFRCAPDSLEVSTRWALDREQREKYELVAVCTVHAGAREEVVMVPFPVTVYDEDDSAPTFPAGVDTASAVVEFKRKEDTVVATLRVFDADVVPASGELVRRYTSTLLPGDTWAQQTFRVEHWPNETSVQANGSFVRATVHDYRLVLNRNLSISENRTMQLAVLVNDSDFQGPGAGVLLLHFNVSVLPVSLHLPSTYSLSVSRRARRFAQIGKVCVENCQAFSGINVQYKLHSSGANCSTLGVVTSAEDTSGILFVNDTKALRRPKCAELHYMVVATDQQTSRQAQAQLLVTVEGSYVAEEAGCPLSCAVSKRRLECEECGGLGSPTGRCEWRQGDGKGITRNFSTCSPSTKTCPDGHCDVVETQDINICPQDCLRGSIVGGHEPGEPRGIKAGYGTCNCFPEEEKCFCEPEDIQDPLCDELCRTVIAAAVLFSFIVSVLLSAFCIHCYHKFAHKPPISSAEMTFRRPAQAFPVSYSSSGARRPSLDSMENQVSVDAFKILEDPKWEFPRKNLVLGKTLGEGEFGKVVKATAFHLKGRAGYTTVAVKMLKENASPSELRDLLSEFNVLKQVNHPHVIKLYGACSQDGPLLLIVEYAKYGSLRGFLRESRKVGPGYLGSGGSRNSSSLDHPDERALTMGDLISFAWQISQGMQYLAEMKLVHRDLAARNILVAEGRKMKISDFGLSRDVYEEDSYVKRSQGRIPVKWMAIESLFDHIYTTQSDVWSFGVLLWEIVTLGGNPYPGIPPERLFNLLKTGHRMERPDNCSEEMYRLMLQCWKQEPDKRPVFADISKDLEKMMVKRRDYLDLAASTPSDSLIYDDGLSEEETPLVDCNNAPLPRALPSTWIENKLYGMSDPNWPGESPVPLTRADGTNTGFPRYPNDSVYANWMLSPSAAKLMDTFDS
Sequence of PHKG1 (human) (Q16816 whole entry, looked up): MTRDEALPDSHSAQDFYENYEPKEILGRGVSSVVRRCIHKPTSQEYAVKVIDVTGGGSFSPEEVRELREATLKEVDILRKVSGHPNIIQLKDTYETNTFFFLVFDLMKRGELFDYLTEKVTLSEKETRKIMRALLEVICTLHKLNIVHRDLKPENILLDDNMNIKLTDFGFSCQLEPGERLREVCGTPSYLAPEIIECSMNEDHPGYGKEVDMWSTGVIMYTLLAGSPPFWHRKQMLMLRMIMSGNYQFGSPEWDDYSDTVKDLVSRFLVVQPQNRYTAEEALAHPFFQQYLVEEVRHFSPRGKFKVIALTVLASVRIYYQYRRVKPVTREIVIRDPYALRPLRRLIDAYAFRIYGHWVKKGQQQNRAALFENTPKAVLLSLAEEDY
Sequence of MLTK (human) (Q9NYL2 whole entry, looked up): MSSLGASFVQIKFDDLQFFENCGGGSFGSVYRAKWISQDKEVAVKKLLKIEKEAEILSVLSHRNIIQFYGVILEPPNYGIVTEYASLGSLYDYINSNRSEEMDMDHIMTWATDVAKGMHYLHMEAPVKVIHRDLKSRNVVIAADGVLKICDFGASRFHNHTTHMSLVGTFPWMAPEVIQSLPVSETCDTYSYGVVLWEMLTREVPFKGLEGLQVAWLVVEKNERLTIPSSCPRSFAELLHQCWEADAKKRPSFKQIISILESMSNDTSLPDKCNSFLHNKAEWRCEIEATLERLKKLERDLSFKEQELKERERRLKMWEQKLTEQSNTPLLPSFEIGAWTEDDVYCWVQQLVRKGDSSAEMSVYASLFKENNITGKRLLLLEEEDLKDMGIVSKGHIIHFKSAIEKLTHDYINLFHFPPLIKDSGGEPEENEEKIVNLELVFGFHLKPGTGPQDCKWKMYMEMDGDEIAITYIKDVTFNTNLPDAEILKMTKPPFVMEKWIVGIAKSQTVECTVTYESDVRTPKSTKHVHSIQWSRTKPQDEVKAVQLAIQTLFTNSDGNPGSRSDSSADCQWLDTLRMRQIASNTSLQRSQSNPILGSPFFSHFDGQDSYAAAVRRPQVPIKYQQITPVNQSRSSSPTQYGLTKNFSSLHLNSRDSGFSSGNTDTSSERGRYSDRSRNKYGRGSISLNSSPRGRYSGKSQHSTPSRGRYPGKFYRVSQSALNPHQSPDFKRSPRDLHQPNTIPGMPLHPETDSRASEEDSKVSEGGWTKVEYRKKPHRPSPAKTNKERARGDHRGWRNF
Sequence of PHKG2 (human) (P15735 whole entry, looked up): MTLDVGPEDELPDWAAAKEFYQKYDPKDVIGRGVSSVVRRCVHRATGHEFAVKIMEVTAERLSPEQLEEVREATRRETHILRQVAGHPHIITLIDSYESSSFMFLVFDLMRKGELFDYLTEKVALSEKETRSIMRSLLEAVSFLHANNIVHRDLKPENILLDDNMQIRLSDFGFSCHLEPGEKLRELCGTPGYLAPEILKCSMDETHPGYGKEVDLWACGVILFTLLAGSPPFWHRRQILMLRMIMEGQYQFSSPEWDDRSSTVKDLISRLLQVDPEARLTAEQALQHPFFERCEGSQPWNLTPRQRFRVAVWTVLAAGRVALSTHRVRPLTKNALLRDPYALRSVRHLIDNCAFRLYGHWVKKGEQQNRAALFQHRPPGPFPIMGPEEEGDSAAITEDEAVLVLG

| SMILES | kinase still bound, per cent of control (PIK3CB (human)) [%] | kinase still bound, per cent of control (STK25 (human)) [%] | kinase still bound, per cent of control (PDGFRA (human)) [%] | kinase still bound, per cent of control (TGFBR1 (human)) [%] | kinase still bound, per cent of control (ANKK1 (human)) [%] | kinase still bound, per cent of control (DCLK2 (human)) [%] | kinase still bound, per cent of control (LATS1 (human)) [%] | kinase still bound, per cent of control (AURKB (human)) [%] | kinase still bound, per cent of control (MYO3A (human)) [%] | kinase still bound, per cent of control (PAK2 (human)) [%] | kinase still bound, per cent of control (CDK14 (human)) [%] | kinase still bound, per cent of control [1] [%] | kinase still bound, per cent of control (PTK2B (human)) [%] | kinase still bound, per cent of control (CDK7 (human)) [%] | kinase still bound, per cent of control (NUAK1 (human)) [%] | kinase still bound, per cent of control (PLK1 (human)) [%] | kinase still bound, per cent of control (CDK16 (human)) [%] | kinase still bound, per cent of control (EPHA8 (human)) [%] | kinase still bound, per cent of control (NEK9 (human)) [%] | kinase still bound, per cent of control (TLK2 (human)) [%] | further results |
| --- | --- | --- | --- | --- | --- | --- | --- | --- | --- | --- | --- | --- | --- | --- | --- | --- | --- | --- | --- | --- | --- |
| C=CC(=O)Nc1cc(NC(=O)c2ccc(C)c(NC(=O)c3ccno3)c2)cc(C(F)(F)F)c1 | 100 | 100 | 41 | 96 | 99 | 100 | 100 | 100 | 93 | 71 | 93 | 74 | 91 | 91 | 100 | 77 | 95 | 3.6 | 100 | 100 | kinase still bound, per cent of control (NEK1 (human)): 100%; kinase still bound, per cent of control (PRKACA (human)): 100%; kinase still bound, per cent of control (ULK1 (human)): 100%; kinase still bound, per cent of control (MAP3K4 (human)): 100%; kinase still bound, per cent of control (CSNK1G1 (human)): 100%; kinase still bound, per cent of control (ACVR2B (human)): 100%; kinase still bound, per cent of control (ACVR1 (human)): 84%; kinase still bound, per cent of control (ADCK4 (human)): 97%; kinase still bound, per cent of control (MAP3K11 (human)): 100%; kinase still bound, per cent of control (DAPK1 (human)): 80%; kinase still bound, per cent of control (PHKG2 (human)): 95%; kinase still bound, per cent of control (GSK3A (human)): 100%; kinase still bound, per cent of control (LYN (human)): 34%; kinase still bound, per cent of control (RPS6KA6 KD2 (human)): 79%; kinase still bound, per cent of control (CAMKK2 (human)): 69%; kinase still bound, per cent of control (MLTK (human)): 6%; kinase still bound, per cent of control (PHKG1 (human)): 92%; kinase still bound, per cent of control (RIOK3 (human)): 76%; kinase still bound, per cent of control (RET (human)): 96%; kinase still bound, per cent of control (CSNK1D (human)): 100% |
| O=C1Nc2ccc(I)cc2/C1=C/c1cc(Br)c(O)c(Br)c1 | 100 | 100 | 22 | 10 | 12 | 94 | 44 | 9.4 | 2.5 | 53 | 95 | 57 | 81 | 67 | 100 | 100 | 89 | 100 | 100 | 83 | kinase still bound, per cent of control (NEK1 (human)): 87%; kinase still bound, per cent of control (PRKACA (human)): 100%; kinase still bound, per cent of control (ULK1 (human)): 100%; kinase still bound, per cent of control (MAP3K4 (human)): 95%; kinase still bound, per cent of control (CSNK1G1 (human)): 69%; kinase still bound, per cent of control (ACVR2B (human)): 83%; kinase still bound, per cent of control (ACVR1 (human)): 31%; kinase still bound, per cent of control (ADCK4 (human)): 65%; kinase still bound, per cent of control (MAP3K11 (human)): 38%; kinase still bound, per cent of control (DAPK1 (human)): 6.2%; kinase still bound, per cent of control (PHKG2 (human)): 92%; kinase still bound, per cent of control (GSK3A (human)): 100%; kinase still bound, per cent of control (LYN (human)): 86%; kinase still bound, per cent of control (RPS6KA6 KD2 (human)): 1.7%; kinase still bound, per cent of control (CAMKK2 (human)): 9%; kinase still bound, per cent of control (MLTK (human)): 84%; kinase still bound, per cent of control (PHKG1 (human)): 85%; kinase still bound, per cent of control (RIOK3 (human)): 17%; kinase still bound, per cent of control (RET (human)): 100%; kinase still bound, per cent of control (CSNK1D (human)): 72% |
